# Measured values taken from US9353072B2, “Antimicrobial substituted thiazoles and methods of use” (Purdue Research Foundation, priority 2012, dated 2016).
# “Also recorded” adds a separate entry of the source. Read-outs that look alike come from different tables or passages of the source.
# Key:
# MRSA USA400 (NRS123) = test: MIC/MBC broth microdilution, NRS123 (USA400); type: cell-based; details: Staphylococcus aureus
# Method: (§1) Determination of minimum inhibitory concentration (MIC). The MICs of the lead thiazole compound (compound 1a) and nine derivatives tested against all 18 MRSA strains were determined, in triplicate samples, using the broth microdilution method in accordance with the recommendations contained in the CLSI guidelines.
# MRSA ATCC 43300 [1] = test: Flow cytometry with LIVE/DEAD Fixable Dead Cell Stain; type: cell-based, Staphylococcus aureus; details: compound 1a at 4.0×MIC; lysostaphin positive control; 10 minutes at 37° C.
# Method: Flow cytometry and LIVE/DEAD® Fixable Dead Cell Stain: The action of the lead compound on cell membrane permeability of MRSA was assayed using the LIVE/DEAD® Fixable Dead Cell Stain Kit (Invitrogen, Eugene, Oreg., USA) according to the manufacturer's instructions. […] Post-treatment cells were fixed with 3.7% formaldehyde; the cells were then screened with a Beckman Coulter FC500 flow cytometer.
# NRS119 = test: MIC/MBC broth microdilution, NRS119; type: cell-based; details: Staphylococcus aureus
# Method: as §1
# MRSA USA800 = test: MIC broth microdilution, MRSA USA800; type: cell-based; details: Staphylococcus aureus, Table 2, read-out: Minimum Inhibitory Concentration
# Method: as §1
# MRSA ATCC 43300 [2] = test: MIC/MBC broth microdilution, MRSA ATCC 43300; type: cell-based, Staphylococcus aureus; details: Staphylococcus aureus
# Method: as §1
# VISA HIP07256 (NRS19) = test: MIC/MBC broth microdilution, NRS19 (VISA HIP07256); type: cell-based; details: Staphylococcus aureus
# Method: as §1
# MRSA USA700 = test: MIC broth microdilution, MRSA USA700; type: cell-based; details: Staphylococcus aureus, Table 2, read-out: Minimum Inhibitory Concentration
# Method: as §1
# MRSA USA100 = test: MIC broth microdilution, MRSA USA100; type: cell-based; details: Staphylococcus aureus; Table 2; MRSA USA100; read-out: Minimum Inhibitory Concentration
# Method: as §1
# MRSA (USA300) = test: Time-kill assay; type: cell-based, Staphylococcus aureus; details: 3.0×MIC; for bactericidal effect in time-kill assay: 12 hour incubation at 37° C.; for time to eliminate MRSA completely (reduce CFU to zero): MRSA (USA300)
# Method: Time-kill assay. […] Viable CFU/mL was determined by serial dilution and plating on trypticase soy agar (TSA) (Becton, Dickinson and Company, Sparks, Md., USA) plates after 0, 2, 4, 6, 8, 10, and 12 hours of incubation at 37° C. to identify the time required to reduce the bacterial cell count by 3-log10.
# NRS107 = test: MIC/MBC broth microdilution, NRS107; type: cell-based; details: Staphylococcus aureus
# Method: as §1
# VISA LIM 3 (NRS37) = test: MIC/MBC broth microdilution, NRS37 (VISA LIM 3); type: cell-based; details: Staphylococcus aureus
# Method: as §1
# VRSA (VRS10) = test: MIC/MBC broth microdilution, VRSA (VRS10); type: cell-based, Staphylococcus aureus; details: Staphylococcus aureus, read-out: Minimum Inhibitory Concentration
# Method: as §1
# NRS194 = test: MIC/MBC broth microdilution, NRS194; type: cell-based; details: Staphylococcus aureus
# Method: as §1
# MRSA USA500 (NRS385) = test: MIC/MBC broth microdilution, NRS385 (USA500); type: cell-based; details: Staphylococcus aureus
# Method: as §1
# [3] = system: 18 different strains of MRSA and VRSA; test: MIC broth microdilution, panel of 18 MRSA and VRSA strains (summary statements); type: cell-based, Staphylococcus aureus
# Method: as §1
# [4] = system: MRSA ATCC 700699 (NRS1, VISA); test: MIC/MBC broth microdilution, NRS1 (ATCC 700699); type: cell-based; details: Staphylococcus aureus
# Method: as §1
# MRSA NRS384 (USA300) = test: MIC/MBC broth microdilution, NRS384 (USA300); type: cell-based; details: Staphylococcus aureus
# Method: as §1
# [5] = system: murine macrophage cells (J774.A1); test: In vitro cytotoxicity analysis, MTS assay; type: cell-based; details: 16 μM, 24 hours
# Method: In vitro cytotoxicity analysis: Compounds were assayed at concentrations of 2 μM, 4 μM, 8 μM, and 16 μM against a macrophage cell line (J774.A1) to determine the potential toxic effect in vitro. Murine macrophage cells were cultured in Dulbeco's Modified Eagle Medium (Sigma-Aldrich, St. Louis, Mo., USA) with 10% Fetal Bovine Serum (USA Scientific, Inc.) at 37° C. with 5% CO2. Controls received DMSO alone at a concentration equal to that in drug-treated cell samples. The cells were incubated with the compounds in a 96-Well Plate at 37° C. and 5.0% CO2 for 24 hours prior to addition of the assay reagent MTS 3-(4,5-dimethylthiazol-2-yl)-5-(3-carboxymethoxyphenyl)-2-(4-sulfophenyl)-2H-tetrazolium) (Promega, Madison, Wis., USA). The reagent measures the succinate dehydrogenase mitochondrial activity as an indicator of cell viability and proliferation. Corrected absorbance readings (actual absorbance readings for each treatment subtracted from background absorbance) were taken using a kinetic ELISA microplate reader (Molecular Devices, Sunnyvale, Calif., USA). The quantity of viable cells after treatment with each compound was expressed as a percentage of the control, DMSO.
# MRSA USA200 = test: MIC broth microdilution, MRSA USA200; type: cell-based; details: Staphylococcus aureus; Table 2; MRSA USA200; read-out: Minimum Inhibitory Concentration
# Method: as §1
# NRS108 = test: MIC broth microdilution, NRS108; type: cell-based; details: Staphylococcus aureus, Table 2, read-out: Minimum Inhibitory Concentration
# Method: as §1
# [6] = Table 2, VISA HIP07256, read-out: Minimum Inhibitory Concentration
# [7] = Table 2, VISA LIM 3, read-out: Minimum Inhibitory Concentration
# [8] = Table 2, MRSA USA500, read-out: Minimum Inhibitory Concentration
# [9] = Table 2, MRSA ATCC 700699, read-out: Minimum Inhibitory Concentration
# [10] = Table 2, MRSA USA300, read-out: Minimum Inhibitory Concentration
# [11] = Table 2, NRS119, read-out: Minimum Inhibitory Concentration
# [12] = Table 2, read-out: Minimum Inhibitory Concentration
smiles,measurement,setting,value
CCCCc1ccc(-c2nc(C)c(/C(C)=N/NC(=N)N)s2)cc1 [Compound 1a],MBC,"MRSA USA400 (NRS123); Table 8, NRS123, read-out: MBC",4 µM
same,MIC,"MRSA USA400 (NRS123); Table 8, NRS123, read-out: MIC",4 µM
same,cells stained with the dye,MRSA ATCC 43300 [1],1.5%
same,MIC,"NRS119; NRS 119 / VISA, Table 7, VISA (NRS119), read-out: Minimum Inhibitory Concentration",4 µM
same,MBC,"NRS119; Table 8, NRS119, read-out: MBC",8 µM
same,MIC,"NRS119; Table 8, NRS119, read-out: MIC",8 µM
same,MIC,MRSA USA800,2.8 µg/mL
same,MIC,"MRSA ATCC 43300 [2]; Table 4, MRSA ATCC 43300, 64 μM down to 0.5 μM, 37° C., 19 hours, read-out: Minimum Inhibitory Concentration",4 µM
same,MIC,"MRSA ATCC 43300 [2]; Table 7, MRSA (ATCC 43300), read-out: Minimum Inhibitory Concentration",4 µM
same,MBC,"MRSA ATCC 43300 [2]; Table 8, ATCC 43300, read-out: MBC",4 µM
same,MIC,"MRSA ATCC 43300 [2]; Table 8, ATCC 43300, read-out: MIC",4 µM
same,MIC,VISA HIP07256 (NRS19); [6],1.4 µg/mL
same,MBC,"VISA HIP07256 (NRS19); Table 8, NRS19 (VISA), read-out: MBC",8 µM
same,MIC,"VISA HIP07256 (NRS19); Table 8, NRS19 (VISA), read-out: MIC",4 µM
same,MIC,MRSA USA700,1.4 µg/mL
same,MIC,MRSA USA100,5.5 µg/mL
same,bactericidal effect in time-kill assay,MRSA (USA300),bactericidal
same,time to eliminate MRSA completely (reduce CFU to zero),MRSA (USA300),within two hours
same,MBC,"NRS107; Table 8, read-out: MBC",8 µM
same,MIC,"NRS107; Table 8, read-out: MIC",8 µM
same,MIC,VISA LIM 3 (NRS37); [7],1.4 µg/mL
same,MBC,"VISA LIM 3 (NRS37); Table 8, NRS37 (VISA), read-out: MBC",8 µM
same,MIC,"VISA LIM 3 (NRS37); Table 8, NRS37 (VISA), read-out: MIC",8 µM
same,MIC,"VRSA (VRS10); Table 7, VRSA (VRS10)",4 µM
same,MBC,"NRS194; Table 8, read-out: MBC",4 µM
same,MIC,"NRS194; Table 8, read-out: MIC",4 µM
same,MIC,MRSA USA500 (NRS385); [8],1.4 µg/mL
same,MBC,"MRSA USA500 (NRS385); Table 8, NRS385, read-out: MBC",4 µM
same,MIC,"MRSA USA500 (NRS385); Table 8, NRS385, read-out: MIC",4 µM
same,"concentration inhibiting growth (MIC), range over the strains tested",[3]; 18 strains of MRSA and VRSA,1.4 to 5.5 µg/mL
same,MIC,[4]; [9],1.4 µg/mL
same,MIC,"[4]; Table 7, VISA (NRS1), read-out: Minimum Inhibitory Concentration",16 µM
same,MBC,"[4]; Table 8, NRS1 (VISA), read-out: MBC",8 µM
same,MIC,"[4]; Table 8, NRS1 (VISA), triplicates, 20 hours, read-out: MIC",4 µM
same,MIC,MRSA NRS384 (USA300); [10],1.4 µg/mL
same,MIC,"MRSA NRS384 (USA300); Table 5, MRSA NRS384 (USA300), 128 μM down to 1.0 μM, 37° C., 19 hours, read-out: Minimum Inhibitory Concentration",4 µM
same,MBC,"MRSA NRS384 (USA300); Table 8, NRS384, read-out: MBC",4 µM
same,MIC,"MRSA NRS384 (USA300); Table 8, NRS384, read-out: MIC",4 µM
"CCCc1ccc(-c2nc(C)c(/C(C)=N/NC(=N)N)s2)cc1 [Compound 1c, 2-{1-[4-Methyl-2-(4-propylphenyl)thiazol-5-yl]ethylidene}hydrazinecarboximidamide]",MIC,"MRSA USA400 (NRS123); Table 2, MRSA USA400, read-out: Minimum Inhibitory Concentration",1.2 µg/mL
same,MIC,NRS119; [11],2.3 µg/mL
same,MIC,MRSA USA800,2.3 µg/mL
same,MIC,VISA HIP07256 (NRS19); [6],2.3 µg/mL
same,MIC,MRSA USA100,1.2 µg/mL
same,MIC,VISA LIM 3 (NRS37); [7],1.2 µg/mL
same,MIC,MRSA USA500 (NRS385); [8],2.3 µg/mL
same,MIC,[4]; [9],2.3 µg/mL
same,toxicity toward murine macrophage cells,[5],exhibited toxicity; also recorded: toxic
same,MIC,MRSA USA200,2.3 µg/mL
same,MIC,MRSA NRS384 (USA300); [10],1.2 µg/mL
CCCCCc1ccc(-c2nc(C)c(/C(C)=N/NC(=N)N)s2)cc1 [Compound 1d],MIC,NRS108,1.1 µg/mL
same,MIC,NRS119; [11],1.1 µg/mL
same,MIC,MRSA USA800,0.5 µg/mL
same,MIC,"MRSA ATCC 43300 [2]; Table 2, MRSA ATCC 43300, read-out: Minimum Inhibitory Concentration",0.8 µg/mL
same,MIC,MRSA USA700,1.1 µg/mL
same,bactericidal effect in time-kill assay,MRSA (USA300),bactericidal
same,time to eliminate MRSA completely (reduce CFU to zero),MRSA (USA300),within two hours
same,MIC,NRS107; [12],0.5 µg/mL
same,MIC,VISA LIM 3 (NRS37); [7],0.5 µg/mL
same,MIC,NRS194; [12],1.1 µg/mL
same,MIC,MRSA USA500 (NRS385); [8],1.1 µg/mL
same,MIC,[4]; [9],0.5 µg/mL
"C/C(=N\NC(=N)N)c1sc(-c2ccc(C(C)(C)C)cc2)nc1C [Compound 1g, 2-{1-[2-(4-(tert-Butyl)phenyl)-4-methylthiazol-5-yl]ethylidene}hydrazinecarboximid-amide]",MIC,MRSA USA800,1 µg/mL
same,MIC,VISA HIP07256 (NRS19); [6],1.9 µg/mL
same,MIC,MRSA USA100,1 µg/mL
same,MIC,NRS107; [12],1 µg/mL
same,MIC,"VRSA (VRS10); Table 2, VRSA",1 µg/mL
same,MIC,NRS194; [12],1.9 µg/mL
same,MIC,MRSA USA500 (NRS385); [8],1 µg/mL
same,improvement in the MIC value relative to the lead compound,"[3]; relative to lead compound 1a, number of strains as stated in the sentence",nearly two- to five-fold enhancement
same,MIC,[4]; [9],1.9 µg/mL
same,toxicity toward murine macrophage cells,[5],exhibited toxicity
same,MIC,MRSA USA200,1.9 µg/mL
same,MIC,MRSA NRS384 (USA300); [10],1 µg/mL
